Measured values published in patent US20100010078A1, “METHODS OF TREATING ANDROGEN DEPENDENT PROSTATE CANCER BY ADMINISTERING AN ACTIVE PHARMACEUTICAL INGREDIENT BEING FISETIN, 3,3',4',7-TETRAHYDROXYFLAVONE OR A DERIVATIVE THEREOF, IN AN ORAL, TRANSDERMAL OR TOPICAL DOSAGE FORM” (priority 2008, published 2010).

Legend:
Format in all cases: cell-based, human
[1] = test system: XIAP and Smac/DIABLO; test: Western blot, XIAP and Smac/DIABLO in LNCaP cells; conditions: fisetin 10-60 μM, 48 h
Procedure: (§1) Protein extraction and western blotting. Following the treatment of LNCaP cells with fisetin (10-60 μM; 48 h), the media was aspirated, the cells were washed with cold PBS (pH 7.4), and ice-cold lysis buffer (50 mM Tris-HCl, 150 mM NaCl, 1 mM EGTA, 1 mM EDTA, 20 mM NaF, 100 mM Na3VO4, 0.5% NP-40, 1% Triton X-100, 1 mM PMSF (pH 7.4)) with freshly added protease inhibitor cocktail (Protease Inhibitor Cocktail Set III, Calbiochem, La Jolla, Calif.) over ice for 30 min. The cells were scraped and the lysate was collected in a microfuge tube and passed through a needle to break up the cell aggregates. […]
(§2) For western blotting, 30-50 μg protein was resolved over 8-12% polyacrylamide gels and transferred to a nitrocellulose membrane. The blot was blocked in blocking buffer (5% nonfat dry milk/1% Tween 20; in 20 mM TBS, pH 7.6) for 1 hr at room temperature, incubated with appropriate monoclonal or polyclonal primary antibody in blocking buffer for 1.5 h to overnight at 4° C., followed by incubation with anti-mouse or anti-rabbit secondary antibody horseradish peroxidase conjugate obtained from Amersham Life Science Inc. and detected by chemiluminescence and autoradiography using XAR-5 film obtained from Eastman Kodak Co. (Rochester, N.Y., USA). […]

[2] = test system: caspase-3, -8 and -9; test: Western blot, active caspase-3, -8 and -9 in LNCaP cells; conditions: fisetin 10-60 μM, 48 h
Procedure: as §1, §2

[3] = test system: caspase-3 and -7; test: Immunofluorescence staining for active caspase-3 and -7; conditions: LNCaP, fisetin only 40 μM, 48 h
Procedure: Immunofluorescence staining for active caspase-3 and -7. LNCaP cells were incubated with 40 μM concentration of the general caspase inhibitor Z-VAD-FMK for 2 h, followed by the addition of fisetin (40 μM; 48 h) and then harvested. ICT's Magic Red™ substrate-based MR-Caspase assay kit was used for the immunofluorescence staining for caspase-3 and -7. This kit utilizes the fluorophore, cresyl violet. As the 4 amino acid sequence, aspartylglutamylalanylaspartic acid (DEVD) is the optimal sequence for caspase -3 as well as -7, it was coupled to cresyl violet to create the caspase 3/7 substrate, MR-(DEVD)2. […] Following enzymatic hydrolysis at one or both of the aspartic acid amide linkage sites, the mono and non-substituted cresyl violet fluorophores fluoresce red and fluorescence photographs were obtained at 510-560 nm excitation and 610 nm emission.

[4] = test system: PI3K (p85), Akt (Ser473 and Thr308); test: Western blot, PI3K (p85) and phosphorylation of Akt in LNCaP cells; conditions: fisetin 10-60 μM, 48 h
Procedure: as §1, §2

For `O=c1c(O)c(-c2ccc(O)c(O)c2)oc2cc(O)ccc12` [fisetin, 3,3′,4′,7-tetrahydroxyflavone], the “protein expression of Smac/DIABLO” value [1] was “induction”, the “protein expression of XIAP” value [1] was “inhibition” and the “activation of caspase-3, -8 and -9” value [2] was “dose-dependent increase”. The “immunofluorescence staining of active caspase-3 & 7” value [3] was “intense staining”, the “expression of regulatory (p85) subunit of PI3K” value [4] was “inhibition” and the “phosphorylation of Akt at Ser473 and Thr308” value [4] was “inhibited”.
